Results on 37 compounds are retold here after PubChem BioAssay AID493085 (Broad Institute, 2011).

The test system of the assay is NIH3T3 R4 HSE-GFP/Tet-RFP reporter, fluorescence, 48 h. In words: dox-induced RFP signal loss in R4-3T3 cells – cell-based, NIH3T3 R4, HSE-GFP and Tet-On RFP, cherry-pick, set 3, dose response (AID 493085).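 Also: cells heat shocked 2 h at 42 °C with doxycycline to induce reporters.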

Records with an inconclusive call do not appear. The source made the active and inactive calls.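 The calls were made as follows: active = falling-signal curve with half-maximal concentration at or below ten times the top tested dose; inconclusive = flat fit at 30 to 70% inhibition, or poor fit; inactive = signal rise, flat within 30%, or potency beyond limit.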 A value given as a limit tells only on which side of the number the result lay.

As a reminder, the AC50 is the concentration at which the activity in the assay is half-maximal. For the compound `O=[N+]([O-])c1ccc(S(=O)(=O)c2ccccc2)nc1`, the AC50 is 19.3 µM.

`CC(=O)c1ccc(NC(=O)C2CCN(S(=O)(=O)c3cccc4cccnc34)CC2)cc1`: the AC50 was > 19.5 µM (inactive).

Turning to `O=C(CCl)N(c1ccccc1)C1CCCCC1`, the concentration at half-maximal activity (AC50) was 4.93 µM.

For `COc1ccc(NC(=O)CSc2nnc3ccc(-c4ccncc4)nn23)cc1OC`, the AC50 was > 19.5 µM (inactive). Under `COc1ccc(C[C@H]2NC[C@H](O)[C@H]2OC(C)=O)cc1` stands 0.171 µM; under `CC1C/C(=N/Nc2nc3ccccc3[nH]2)CC(C)(C)C1` (configuration not stated), > 19.5 µM (inactive); under `CCCCN(C(=O)COc1ccc(C)cc1OC)c1c(N)n(CCC)c(=O)[nH]c1=O`, > 19.5 µM (inactive). Under `Cc1nc2c(-c3ccccc3)cnn2c(N)c1-c1ccccc1` stands > 19.5 µM (inactive); under `CCOc1cc(/C=N/NC(=O)c2cccc(S(=O)(=O)N3CCOCC3)c2)ccc1OCC(=O)N(C)C`, > 19.5 µM (inactive). Regarding `N#CC1=C(N)Oc2cc(N)ccc2C1c1ccccc1Cl` (configuration not stated), the AC50 was > 19.5 µM (inactive). Under `Cc1ccccc1NC(=O)COC(=O)c1ccc(S(C)(=O)=O)c([N+](=O)[O-])c1` stands 18.3 µM; under `COc1ccc(CNC(=O)c2cnc3scc(C)n3c2=O)cc1`, > 19.5 µM (inactive); under `O=[N+]([O-])c1cnc(Sc2ccncn2)s1`, 13.1 µM.

Turning to `O=C(C#Cc1ccccc1)c1ccco1`, the half-maximal activity concentration (AC50) was 4.11 µM. As for `COc1ccc2[nH]c3c(=O)n(CCCN4CCOCC4)cnc3c2c1`, the AC50 was > 19.5 µM (inactive). For the compound `S=C1Cc2ccccc2N1`, the AC50 is 2.46 µM. As for `O=c1c(Cl)c(Cl)cnn1-c1ccccc1`, the AC50 was 14.4 µM. Turning to `CC(C)(C)c1ccc2c(c1)OC(C(=O)N/N=C\c1ccc[nH]1)CO2` (configuration not stated), the concentration at half-maximal activity (AC50) was 0.182 µM. With `N#Cc1cccc(C#N)c1Oc1ccc(S(=O)(=O)Nc2ccc(Cl)cc2)cc1` the figure was 18.8 µM; with `Cc1cc(C)c(S(=O)(=O)/N=C2\C=C(Nc3ccc(C(=O)O)cc3)C(=O)c3ccccc32)c(C)c1`, 4.97 µM. With `O=C(NCCN1CCCCC1)Nc1ccccc1Cl` the figure was > 19.5 µM (inactive). On to `CCc1ccc(C2=NNC(=Nc3cccc(S(=O)(=O)N(C)C)c3)SC2)cc1`, for which the AC50 was 2 µM. On to `CCN1C/C(=C/c2ccc(OC)c(O)c2)C(=O)/C(=C/c2ccc(OC)c(O)c2)C1`, for which the AC50 is 1.8 µM. `COc1cccc(-c2nnc3n2N=C(C(C)(C)C)CS3)c1`: the AC50 was 0.484 µM. For the compound `CCCS(=O)(=O)N1CCc2cc(OC)c(OC)cc2C1`, the AC50 is > 10 µM (inactive). As to `CCSc1nnc(NC(=O)C(Cc2ccccc2)n2cccc2)s1` (configuration not stated), the AC50 is > 19.5 µM (inactive). Under `O=C(c1nnsc1S(=O)(=O)c1ccc(Cl)cc1)N1CCOCC1` stands 17.3 µM; under `CC1(C)C[C@H]2C=C(C=O)[C@]3(C=O)C[C@]3(C)[C@H]2C1`, 17.9 µM. For the compound `CCOc1c2ccc(C(=O)NCc3ccccc3OC)cc2nn1CC`, the AC50 was > 19.5 µM (inactive).

Consider `COc1c(N2CCN(C(=S)NC3CC4CCC3C4)C(C)C2)c(F)cc2c(=O)c(C(=O)O)cn(C3CC3)c12` (configuration not stated), for which the AC50 was 17.9 µM.

Regarding `Cc1oc2c(c1C(=O)NCc1cccnc1)C(=O)c1ccccc1C2=O`, the AC50 is 0.891 µM. Under `CCCCn1c(C(C)NC(=O)CC)nc2ccccc21` (configuration not stated) stands > 19.5 µM (inactive); under `CC(Nc1ncnc2sccc12)c1ccccc1` (configuration not stated), 0.349 µM; under `COc1ccc(N2CCN(C(CNC(=O)C(=O)NCc3ccncc3)c3ccco3)CC2)cc1` (configuration not stated), > 19.5 µM (inactive). On to `CCOC(=O)/C(=C\c1ccc([N+](=O)[O-])cc1)C(=O)c1cc(C(C)=O)c(Nc2ccccc2)s1`, for which the half-maximal activity concentration (AC50) is 6.97 µM.

With `O=C(CNC(=S)N(CCCN1CCOCC1)Cc1cccs1)NCc1ccccc1Cl`, the AC50 was > 19.5 µM (inactive). Under `COc1ccc(N(Cc2cc3cc(OC)ccc3[nH]c2=O)S(=O)(=O)c2ccc(NC(C)=O)cc2)cc1` stands 14.3 µM.
